Laboratory results: US6461865B1, “Calreticulin-deficient cells” (priority 1997, dated 2002)

Key:
Assay type in all cases: cell-based, mouse
ES cells = assay: Cytosolic calcium measurement (fura-2) in ES cells; details: Ca2+-free medium
Procedure: It has been reported that calreticulin can regulate inositol 1,4,5-trisphosphate (InsP3)-mediated calcium signaling in Xenopus oocytes^9. To more specifically examine the role of calreticulin in the storage and mobilization of calcium from InsP3-sensitive stores, we challenged ES cells with lysophosphatidic acid (LPA, 100 nM), which induces InsP3 release12 via heterotrimeric G-protein -mediated activation of phospholipase C. […] The magnitude of this transient was indistinguishable in parental and clone 29 cells (FIG. 4b). […] These observations imply that the stores depleted by LPA represent a subset of the thapsigargin-sensitive compartment.
To measure cytosolic free calcium, the cells were loaded with fura-2 by incubation with 0.5-10 μM of the precursor acetoxymethyl ester for 20 min. at 37° C. Fura-2 ratio fluorescence measurements were performed on a Nikon Diaphot TMD microscope (Nikon Canada) equipped with a 100 W Xenon lamp, a shutter/rotating mirror/fiber optic assembly (RatioMaster, Photon Technologies), a Fluor 40x/1.3 oil-immersion objective and a high-sensitivity photometer (D-104, PTI) interfaced to a 386 computer (NEC) via a 12 bit A/D board (Labmaster, National Instruments). […] The intracellular concentration of fura-2 was measured at the isosbestic wavelength (360 nm) and compared to standards. […]

wild-type ES cells = assay: Serum-free cell attachment assay on fibronectin, wild-type ES cells; details: peptide 0.5-1 mg/ml, antiserum 10 μg/ml
Procedure: The adhesive capacities of the ES cell clones were assessed by quantitative cell attachment assays on fibronectin and laminin under serum-free conditions. […] ES cells lacking calreticulin also were impaired in their ability to adhere to anti-alpha5 beta1 integrin antibodies (FIG. 2a). The heterozygous clone (#34) was generally intermediate in its level of adhesion. None of the clones tested adhered to vitronectin (FIG. 2a). […] To ensure that the observed differences in cell adhesion were not due to differences in the level of expression of the relevant integrins, the cell surface levels of alpha5 beta1, alpha4, alpha6 and alphav beta3 integrins were assessed by flow cytometry. All clones tested expressed similar levels of integrin subunits (FIG. 2c).
Serum-free adhesion assays are described elsewhere^5. 0.5-1 mg/ml GRGDSP [SEQ ID No: 1] or GRGESP [SEQ. ID No: 2] peptide (Gibco/BRL), 10 μg/ml rabbit anti-fibronectin receptor (Gibco/BRL) or 10 μg/ml rat anti-alpha6 (GoH3, AMAC, Inc.) was added where indicated. For flow cytometric analysis of integrin expression, 1×10^6 cells were incubated on ice for 30 min. with primary antibody; anti-FNR, anti-VNR (Gibco/BRL), anti-alpha6 (GoH3) or anti-alpha429 in PBS/0.1% sodium azide/2.0% fetal bovine serum. […] Cells were fixed in PBS/1.0% paraformaldehyde, pelleted, resuspended in PBS and analyzed on a FACScan (Becton Dickinson Immunocytometry Systems).

[1] = tested on: calreticulin knock-out ES cells; assay: Adhesion of calreticulin knock-out ES cells to fibronectin
Procedure: FIG. 4E Adhesion assays to Fibronectin as in FIG. 6. Where indicated 100 nM LPA or 100 nM Tg and anti-FNR antiserum (10 μg/ml) were added. Open bars, parental ES cells; closed bars, knock-out ES cells. All data are means +/− SEM of at least 3 experiments. It is conceivable that a transient increase in cytosolic [Ca^2+] shortly after integrin ligand binding is an important part of normal receptor post-occupancy events (eg. increases in avidity, cytoskeletal reorganization). To examine this possibility, we tested whether stimulation of down-stream events in integrin ‘outside-in’ signaling within calreticulin-null cells could compensate for their adhesion defect. […] Although not shown in FIG. 4, the response to LPA was dose-dependent. […] Serum-free adhesion assays are described elsewhere^5. 0.5-1 mg/ml GRGDSP [SEQ ID No: 1] or GRGESP [SEQ. ID No: 2] peptide (Gibco/BRL), 10 μg/ml rabbit anti-fibronectin receptor (Gibco/BRL) or 10 μg/ml rat anti-alpha6 (GoH3, AMAC, Inc.) was added where indicated. For flow cytometric analysis of integrin expression, 1×10^6 cells were incubated on ice for 30 min. with primary antibody; anti-FNR, anti-VNR (Gibco/BRL), anti-alpha6 (GoH3) or anti-alpha429 in PBS/0.1% sodium azide/2.0% fetal bovine serum. […] Cells were fixed in PBS/1.0% paraformaldehyde, pelleted, resuspended in PBS and analyzed on a FACScan (Becton Dickinson Immunocytometry Systems).

In the case of `C/C=C(/C)C(=O)O[C@H]1C(C)=C2[C@H]([C@@H]1OC(=O)CCCCCCC)[C@@](C)(OC(C)=O)C[C@H](OC(=O)CCC)[C@@]1(O)[C@H]2OC(=O)[C@@]1(C)O` [thapsigargin], the “Net Ca2+ release after prior LPA” value (ES cells; added after LPA) is reported as “induced a second, smaller burst of net Ca^2+ release”.
GRGDSP [GRGDSP peptides, (Gibco/BRL)] was tested, and the “Wild-type ES cell adhesion to fibronectin” value (wild-type ES cells) was “inhibited adhesion to fibronectin”.
With lysophosphatidic acid [LPA] the “Adhesion of calreticulin knock-out cells to fibronectin” value ([1]; 100 nM) was “significantly restored”, the “Dose dependence of the adhesion response of calreticulin knock-out cells” value ([1]; data not shown in FIG. 4) was “dose-dependent” and the “Cytosolic [Ca2+]i transient” value (ES cells; 100 nM, parental and clone 29 cells) was “induced a rapid [Ca2+]i transient”.
